Patent publication US8247211B2, “Glycopeptide antibiotics” (American Cyanamid Company, priority 2001, dated 2012)

What was measured:
Experiment in all cases: In vitro antibacterial evaluation: minimum inhibitory concentration (MIC), broth dilution method
Assay type in all cases: cell-based
Escherichia coli = settings: 18 hours at 35° C.
Outline: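 Inoculum: 5×10^5 CFU/mL. Range: 64-0.06 μg/mL. Medium: Muller-Hinton II […]; NCCLS M7-A2 broth dilution. Endpoint: lowest concentration inhibiting growth. Strains include methicillin-, penicillin- and/or vancomycin-resistant clinical isolates.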

Streptococcus sp. = settings: 18 hours at 35° C.
Outline: (§1)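 An MIC is reported for each organism as the least concentration giving inhibition, using broth dilution over 64-0.06 μg/mL with a 5×10^5 CFU/mL inoculum.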

Staphylococcus sp. = tested on: Staphylococcus sp.
Outline: as §1

Enterococcus sp. = settings: 18 hours at 35° C.
Outline: as §1

[1] = broth dilution, inoculum 5×10^5 CFU/mL

CC(C)=CCCC(C)=CCCC(C)=CCOc1cccc(C2OCC3OC(OC4C(CO)OC(Oc5ccc(CC6NC(=O)C(C(C)c7ccccc7)NC(=O)CNC(=O)C(CO)NC(=O)C(C(O)C7CNC(=N)N7C7OC(CO)C(O)C(O)C7O)NC(=O)C(C(O)C7CNC(=N)N7)NC6=O)cc5)C(O)C4O)C(O)C(O)C3O2)c1 (stereo not shown) [Example 185]
64 µg/mL: MIC Enterococcus avium (GC 4558) (Enterococcus sp.; Enterococcus avium (GC 4558)) | MIC Enterococcus avium (GC 4558) (Enterococcus sp.; [1])
>64 µg/mL: MIC Escherichia coli (ATCC 25922) (Escherichia coli; Escherichia coli (ATCC 25922)) | MIC Escherichia coli (GC 4559) (Escherichia coli; Escherichia coli (GC 4559)) | MIC Escherichia coli (GC 4560) (Escherichia coli; Escherichia coli (GC 4560)) | MIC Staphylococcus aureus (ATCC 29213) (Staphylococcus sp.; strain ATCC 29213) | MIC Staphylococcus aureus (GC 1131) (Staphylococcus sp.; strain GC 1131) | MIC Staphylococcus aureus (GC 3051) (Staphylococcus sp.; strain GC 3051) | MIC Staphylococcus aureus (GC 3053) (Staphylococcus sp.; strain GC 3053) | MIC Staphylococcus aureus (GC 4541) (Staphylococcus sp.; strain GC 4541) | MIC Staphylococcus aureus (GC 4542) (Staphylococcus sp.; strain GC 4542) | MIC Staphylococcus aureus-SMITH (GC 4543) (Staphylococcus sp.; strain GC 4543) | MIC Staphylococcus aureus (GC 4544) (Staphylococcus sp.; strain GC 4544) | MIC Staphylococcus aureus (GC 4545) (Staphylococcus sp.; strain GC 4545) | MIC Staphylococcus haemolyticus (GC 4546) (Staphylococcus sp.; strain GC 4546) | MIC Coagulase Negative Staphylococcus (GC 4547) (Staphylococcus sp.; strain GC 4547) | MIC Coagulase Negative Staphylococcus (GC 4548) (Staphylococcus sp.; strain GC 4548) | MIC Coagulase Negative Staphylococcus (GC 4549) (Staphylococcus sp.; strain GC 4549) | MIC Coagulase Negative Staphylococcus (GC 4551) (Staphylococcus sp.; strain GC 4551) | MIC Coagulase Negative Staphylococcus (GC 6257) (Staphylococcus sp.; strain GC 6257) | MIC Enterococcus faecalis (ATCC 29212) (Enterococcus sp.; Enterococcus faecalis (ATCC 29212)) | MIC Enterococcus faecalis (GC 2242) (Enterococcus sp.; Enterococcus faecalis (GC 2242)) | MIC Enterococcus faecalis (GC 2691) (Enterococcus sp.; Enterococcus faecalis (GC 2691)) | MIC Enterococcus faecalis (GC 3059) (Enterococcus sp.; Enterococcus faecalis (GC 3059)) | MIC Enterococcus faecalis (GC 4552) (Enterococcus sp.; Enterococcus faecalis (GC 4552)) | MIC Enterococcus faecalis (GC 4554) (Enterococcus sp.; Enterococcus faecalis (GC 4554)) | MIC Enterococcus faecalis (GC 6189) (Enterococcus sp.; Enterococcus faecalis (GC 6189)) | MIC Enterococcus faecium (GC 4556) (Enterococcus sp.; Enterococcus faecium (GC 4556)) | MIC Enterococcus faecium (GC 4557) (Enterococcus sp.; Enterococcus faecium (GC 4557)) | MIC Enterococcus faecalis (ATCC 29212) (Enterococcus sp.; [1]) | MIC Enterococcus faecalis (GC 2242) (Enterococcus sp.; [1]) | MIC Enterococcus faecalis (GC 2691) (Enterococcus sp.; [1]) | MIC Enterococcus faecalis (GC 3059) (Enterococcus sp.; [1]) | MIC Enterococcus faecalis (GC 4552) (Enterococcus sp.; [1]) | MIC Enterococcus faecalis (GC 4554) (Enterococcus sp.; [1]) | MIC Enterococcus faecalis (GC 6189) (Enterococcus sp.; [1]) | MIC Enterococcus faecium (GC 4556) (Enterococcus sp.; [1]) | MIC Enterococcus faecium (GC 4557) (Enterococcus sp.; [1])
16 µg/mL: MIC Streptococcus pyogenes (GC 4563) (Streptococcus sp.; Streptococcus pyogenes (GC 4563)) | MIC Streptococcus pyogenes (GC 4563) (Streptococcus sp.; [1])
0.12 µg/mL: MIC Streptococcus pneumoniae (ATCC 6301) (Streptococcus sp.; Streptococcus pneumoniae (ATCC 6301)) | MIC Streptococcus pneumoniae (ATCC 6301) (Streptococcus sp.; [1])
<0.06 µg/mL: MIC Streptococcus pneumoniae (GC 1894) (Streptococcus sp.; Streptococcus pneumoniae (GC 1894)) | MIC Streptococcus pneumoniae (GC 4565) (Streptococcus sp.; Streptococcus pneumoniae (GC 4565)) | MIC Streptococcus pneumoniae (GC 1894) (Streptococcus sp.; [1]) | MIC Streptococcus pneumoniae (GC 4565) (Streptococcus sp.; [1])
1 µg/mL: MIC Streptococcus agalactiae (GC 4564) (Streptococcus sp.; Streptococcus agalactiae (GC 4564)) | MIC Streptococcus agalactiae (GC 4564) (Streptococcus sp.; [1])
32 µg/mL: MIC Enterococcus faecalis (GC 4553) (Enterococcus sp.; Enterococcus faecalis (GC 4553)) | MIC Enterococcus faecium (GC 2243) (Enterococcus sp.; Enterococcus faecium (GC 2243)) | MIC Enterococcus faecalis (GC 4553) (Enterococcus sp.; [1]) | MIC Enterococcus faecium (GC 2243) (Enterococcus sp.; [1])
